Biological target: hERG (Homo sapiens, UniProt Q12809)
Assay: Whole-cell patch-clamp of IKr hERG tail current: protective effect of lipids against hERG inhibition by Nilotinib
Details: for activity at 5 min: human, herg hek293 cells

Sequence of hERG (Q12809 whole entry): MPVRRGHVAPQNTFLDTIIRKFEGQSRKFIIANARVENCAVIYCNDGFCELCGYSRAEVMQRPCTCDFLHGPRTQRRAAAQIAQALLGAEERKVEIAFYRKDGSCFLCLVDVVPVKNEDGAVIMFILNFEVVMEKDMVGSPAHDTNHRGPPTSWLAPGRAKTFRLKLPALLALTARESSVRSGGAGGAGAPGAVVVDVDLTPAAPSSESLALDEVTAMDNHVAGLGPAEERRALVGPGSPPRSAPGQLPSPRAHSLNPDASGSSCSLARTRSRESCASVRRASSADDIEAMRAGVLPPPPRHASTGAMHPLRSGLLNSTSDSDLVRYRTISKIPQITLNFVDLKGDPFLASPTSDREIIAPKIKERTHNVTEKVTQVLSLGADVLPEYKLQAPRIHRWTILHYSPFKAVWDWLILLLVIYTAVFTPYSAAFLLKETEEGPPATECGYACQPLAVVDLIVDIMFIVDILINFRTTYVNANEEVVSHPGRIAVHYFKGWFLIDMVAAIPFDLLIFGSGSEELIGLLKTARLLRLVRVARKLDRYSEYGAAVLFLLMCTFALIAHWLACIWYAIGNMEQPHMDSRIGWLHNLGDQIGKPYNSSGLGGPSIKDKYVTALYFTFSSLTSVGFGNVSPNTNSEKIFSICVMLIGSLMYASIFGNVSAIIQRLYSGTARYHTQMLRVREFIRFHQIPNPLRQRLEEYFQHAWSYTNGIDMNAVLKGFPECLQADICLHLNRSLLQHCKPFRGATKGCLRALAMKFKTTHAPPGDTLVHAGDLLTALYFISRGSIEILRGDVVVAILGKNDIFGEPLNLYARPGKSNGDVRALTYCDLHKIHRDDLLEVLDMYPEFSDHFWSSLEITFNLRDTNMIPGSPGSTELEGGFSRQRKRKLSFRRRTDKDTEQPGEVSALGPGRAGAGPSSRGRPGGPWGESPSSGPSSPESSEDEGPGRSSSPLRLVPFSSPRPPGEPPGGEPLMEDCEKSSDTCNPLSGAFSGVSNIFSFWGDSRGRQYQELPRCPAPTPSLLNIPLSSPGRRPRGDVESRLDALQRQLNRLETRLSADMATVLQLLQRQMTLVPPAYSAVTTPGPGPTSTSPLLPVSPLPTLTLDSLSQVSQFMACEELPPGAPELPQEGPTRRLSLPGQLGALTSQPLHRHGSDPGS

## 12-Mysteroyl-2-Hydroxy-sn-Glycero-3-[Phospho-rac-(glycerol)] [DMPG]
Lipid alone in aqueous solution, 5 minutes exposure, hERG-transfected HEK 293 cells, tail current at -55 mV, baseline = 1.000
  Normalized Current Density: 0.800

## CCCCCCCCCCCCCC(=O)OC[C@H](COP(=O)([O-])OCC[N+](C)(C)C)OC(=O)CCCCCCCCCCCCC [DMPC, 1,2-dimyristoyl-sn-glycero-3-phosphocholine]
  activity at 5 min: 106%
Normalized Current Density, lipid alone in aqueous solution, 5 minutes exposure, hERG-transfected HEK 293 cells, tail current at -55 mV, baseline = 1.000
  activity at 5 min: 86.3%

— patent EP3697386B1, “LIQUID COMPOSITIONS FOR PERORAL USE COMPRISING PHOSPHATIDYLGLYCEROL DERIVATIVES AND T[…] TREATING CARDIAC CHANN[…] BY PHARMACOLOGICAL AGENTS” (Signpath Pharma, Inc., priority 2017, dated 2019)
